Test results: ChEMBL document CHEMBL6071193, “Structure-Activity Relationship of Potent, Selective, and Orally Bioavailable Molecular Glue Degraders of CK1α” (ACS Med Chem Lett, 2024)
In brackets after ≈: the same amount, converted by molar mass. Activity calls are given as the source filed them. No cut-off for these calls is given here.

Tests used:
[1] = AUClast in female CD-1 mouse at 10 mg/kg, po administered as 5% v/v NMP, 5% v/v solutol HS-15, 20% PEG 400 and 70% v/v normal saline formulation and measured after 24 hrs; assay type: ADME, organism-based; conditions: in vivo
[2] = Metabolic stability in CD1 mouse hepatocytes assessed as half-life; assay type: ADME, cell-based, Hepatocyte; conditions: mouse
[3] = Metabolic stability in mouse liver microsomes assessed as half-life at 10 uM measured upto 4 hrs in presence of NADPH by UPLC-MS/MS analysis; assay type: ADME, Microsome; conditions: microsomes, 4 h, 10 µM
[4] = Oral bioavailability in female CD-1 mouse at 10 mg/kg administered as 5% v/v NMP, 5% v/v solutol HS-15, 20% PEG 400 and 70% v/v normal saline formulation and measured after 24 hrs; assay type: ADME, organism-based; conditions: in vivo
[5] = Metabolic stability in human hepatocytes assessed as half-life; assay type: ADME, cell-based, Hepatocyte
MOLM-13 [6] = assay: Downregulation of CK1alpha protein level in human MOLM-13 cells at 1 uM measured after 4 hrs by TMT-proteomic analysis; assay type: functional, cell-based
MOLM-13 [7] = assay: Antiproliferative activity against human MOLM-13 cells incubated for 72 hrs by Cell-Titer Glo assay; assay type: functional, cell-based; conditions: MOLM-13, 72 h
[8] = Cmax in female CD-1 mouse at 10 mg/kg, po administered as 5% v/v NMP, 5% v/v solutol HS-15, 20% PEG 400 and 70% v/v normal saline formulation and measured after 24 hrs; assay type: ADME, organism-based; conditions: in vivo
[9] = Apparent permeability across apical to basolateral side in MDCK-II cells at 10 micromol/L incubated for 1 hrs by UPLC/MS analysis; assay type: ADME, cell-based, Canis lupus familiaris; conditions: dog, mdck-ii, 1 h, 10 µM, dose 10 µmol/L
[10] = Solubility of compound at pH 7.4 incubated for 18 hrs by UV-spectra analysis; assay type: physicochemical; conditions: buffer; for solubility: pH 7.4, 18 h
[11] = target: T1, Cereblon/Casein kinase I alpha (Homo sapiens, UniProt P48729+Q96SW2); assay: PROTAC activity at CRBN/HiBiT-tagged CK1alpha in HEK293 cells transfected with LgBiT expression vector assessed as induction of CK1alpha degradation by measuring degradation rate at 10 uM measured after 24 hrs by luminescence based GloMax Discover assay; assay type: cell-based
Target sequence in this assay (P48729 2-337 limits assumed): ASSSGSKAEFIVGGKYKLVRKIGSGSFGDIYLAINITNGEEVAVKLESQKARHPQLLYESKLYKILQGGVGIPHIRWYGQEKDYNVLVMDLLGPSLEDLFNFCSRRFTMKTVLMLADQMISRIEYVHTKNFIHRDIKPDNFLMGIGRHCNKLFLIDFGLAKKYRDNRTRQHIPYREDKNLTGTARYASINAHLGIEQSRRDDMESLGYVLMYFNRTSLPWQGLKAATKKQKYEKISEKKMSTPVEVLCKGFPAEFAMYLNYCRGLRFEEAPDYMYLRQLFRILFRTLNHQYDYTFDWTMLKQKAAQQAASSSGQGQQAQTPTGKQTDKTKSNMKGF
Target sequence in this assay (Q96SW2 whole entry partner): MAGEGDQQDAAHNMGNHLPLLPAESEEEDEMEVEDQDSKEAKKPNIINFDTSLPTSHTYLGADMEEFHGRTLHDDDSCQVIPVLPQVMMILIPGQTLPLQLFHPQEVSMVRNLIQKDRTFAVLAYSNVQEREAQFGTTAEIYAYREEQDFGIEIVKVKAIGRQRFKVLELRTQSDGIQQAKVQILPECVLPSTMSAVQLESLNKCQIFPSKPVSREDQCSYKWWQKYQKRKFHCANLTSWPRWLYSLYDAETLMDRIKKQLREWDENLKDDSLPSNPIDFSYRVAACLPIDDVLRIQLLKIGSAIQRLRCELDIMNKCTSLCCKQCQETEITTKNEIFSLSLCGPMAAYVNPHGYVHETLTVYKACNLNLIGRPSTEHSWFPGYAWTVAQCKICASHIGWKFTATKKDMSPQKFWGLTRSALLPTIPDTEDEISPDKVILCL

[12] = Volume of distribution at steady state in female CD-1 mouse at 3 mg/kg, iv administered as 5% v/v NMP, 5% v/v solutol HS-15, 20% PEG 400 and 70% v/v normal saline formulation and measured after 24 hrs; assay type: ADME, organism-based; conditions: in vivo
[13] = Apparent permeability across basolateral to apical side in MDCK-II cells at 10 micromol/L incubated for 1 hrs by UPLC/MS analysis; assay type: ADME, cell-based, Canis lupus familiaris; conditions: dog, mdck-ii, 1 h, 10 µM, dose 10 µmol/L
[14] = Stability in mouse plasma assessed as half-life at 10 uM measured upto 48 hrs by UPLC-MS/MS analysis; assay type: ADME, cell-free; conditions: 48 h, 10 µM
[15] = Stability in human plasma assessed as half-life at 10 uM measured upto 48 hrs by UPLC-MS/MS analysis; assay type: ADME, cell-free
[16] = target: T1, Cereblon/Casein kinase I alpha; assay: PROTAC activity at CRBN/HiBiT-tagged CK1alpha in HEK293 cells transfected with LgBiT expression vector assessed as induction of CK1alpha degradation by measuring maximal efficacy at 10 uM measured after 24 hrs by luminescence based GloMax Discover assay relative to control; assay type: cell-based
Target sequence in this assay (P48729 2-337 limits assumed): as the sequence (P48729 2-337 limits assumed) above
Target sequence in this assay (Q96SW2 whole entry partner): as the sequence (Q96SW2 whole entry partner) above

[17] = Half-life in female CD-1 mouse at 3 mg/kg, iv administered as 5% v/v NMP, 5% v/v solutol HS-15, 20% PEG 400 and 70% v/v normal saline formulation and measured after 24 hrs; assay type: ADME, organism-based; conditions: in vivo
[18] = Cmax in female CD-1 mouse at 3 mg/kg, iv administered as 5% v/v NMP, 5% v/v solutol HS-15, 20% PEG 400 and 70% v/v normal saline formulation and measured after 24 hrs; assay type: ADME, organism-based; conditions: in vivo
[19] = Metabolic stability in pooled human liver microsomes assessed as half-life at 10 uM measured upto 4 hrs in presence of NADPH by UPLC-MS/MS analysis; assay type: ADME, Microsome
[20] = target: T1, Cereblon/Casein kinase I alpha; assay: PROTAC activity at CRBN/HiBiT-tagged CK1alpha in HEK293 cells transfected with LgBiT expression vector assessed as induction of CK1alpha degradation measured after 24 hrs by luminescence based GloMax Discover assay; assay type: cell-based
Target sequence in this assay (P48729 whole entry): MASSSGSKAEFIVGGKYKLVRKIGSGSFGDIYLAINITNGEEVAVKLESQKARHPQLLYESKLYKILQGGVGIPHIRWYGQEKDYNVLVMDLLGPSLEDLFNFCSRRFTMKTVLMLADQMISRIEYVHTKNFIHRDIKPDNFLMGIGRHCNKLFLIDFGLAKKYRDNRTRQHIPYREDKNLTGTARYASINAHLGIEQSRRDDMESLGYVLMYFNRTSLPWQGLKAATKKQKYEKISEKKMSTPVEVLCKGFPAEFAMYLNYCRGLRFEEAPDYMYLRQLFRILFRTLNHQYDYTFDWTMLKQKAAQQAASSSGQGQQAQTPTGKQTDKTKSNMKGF
Target sequence in this assay (Q96SW2 whole entry): as the sequence (Q96SW2 whole entry partner) above

[21] = AUClast in female CD-1 mouse at 3 mg/kg, iv administered as 5% v/v NMP, 5% v/v solutol HS-15, 20% PEG 400 and 70% v/v normal saline formulation and measured after 24 hrs; assay type: ADME, organism-based; conditions: in vivo
[22] = target: T1, Cereblon/Casein kinase I alpha; assay: Binding affinity to Halo-tagged CRBN (unknown origin)/HiBiT-tagged CK1alpha in HEK293 cells transfected with LgBiT expression vector assessed as ternary complex formation by measuring fold increase in NanoBRET signal preincubated with MG132 for 30 mins followed by compound addition and measured after 2 hrs by NanoBRET assay relative to control; assay type: cell-based
Target sequence in this assay (P48729 2-337 limits assumed): as the sequence (P48729 2-337 limits assumed) above
Target sequence in this assay (Q96SW2 whole entry partner): as the sequence (Q96SW2 whole entry partner) above

Cereblon/Ikaros = Cereblon/Ikaros (Homo sapiens, UniProt Q96SW2+Q13422); assay: PROTAC activity at CRBN/HiBiT-tagged IKZF1 in human Jurkat cells transfected with LgBiT expression vector assessed as induction of IKZF1 degradation measured after 24 hrs by luminescence based GloMax Discover assay; assay type: cell-based
Jurkat = assay: Cytotoxicity against human Jurkat cells expressing HiBiT-tagged IKZF1 at 0.0001 to 100 uM measured over 24 hrs by Cell-Titer Glo assay; assay type: toxicity, cell-based; conditions: dose 0.0001-100 µM
HEK293 = assay: Cytotoxicity against HEK293 cells expressing HiBiT-tagged CK1alpha at 0.0001 to 100 uM measured over 24 hrs by Cell-Titer Glo assay; assay type: toxicity, cell-based; conditions: human, hek293, 24 h, dose 0.0001-100 µM
[23] = target: T1, Cereblon/Casein kinase I alpha; assay: Binding affinity to Halo-tagged CRBN (unknown origin)/HiBiT-tagged CK1alpha in HEK293 cells transfected with LgBiT expression vector assessed as ternary complex formation preincubated with MG132 for 30 mins followed by compound addition and measured after 2 hrs by NanoBRET assay; assay type: cell-based
Target sequence in this assay (P48729 whole entry): as the sequence (P48729 whole entry) above
Target sequence in this assay (Q96SW2 whole entry): as the sequence (Q96SW2 whole entry partner) above

[24] = Tmax in female CD-1 mouse at 10 mg/kg, po administered as 5% v/v NMP, 5% v/v solutol HS-15, 20% PEG 400 and 70% v/v normal saline formulation and measured after 24 hrs; assay type: ADME, organism-based; conditions: in vivo
[25] = Clearance in female CD-1 mouse assessed as hepatic blood flow at 3 mg/kg, iv administered as 5% v/v NMP, 5% v/v solutol HS-15, 20% PEG 400 and 70% v/v normal saline formulation and measured after 24 hrs; assay type: ADME, organism-based; conditions: in vivo
[26] = target: Protein cereblon/Eukaryotic peptide chain release factor GTP-binding subunit ERF3A (Homo sapiens) (UniProt Q96SW2+P15170); assay: PROTAC activity at CRBN (unknown origin)/human HiBiT-tagged GSPT1 transfected in HEK293 cells assessed as induction of GSPT1 degradation measured after 24 hrs by Nano-Glo reagent based luminescence analysis; assay type: cell-based
Sequence of Protein cereblon/Eukaryotic peptide chain release factor GTP-binding subunit ERF3A (Homo sapiens) (P15170 whole entry, looked up): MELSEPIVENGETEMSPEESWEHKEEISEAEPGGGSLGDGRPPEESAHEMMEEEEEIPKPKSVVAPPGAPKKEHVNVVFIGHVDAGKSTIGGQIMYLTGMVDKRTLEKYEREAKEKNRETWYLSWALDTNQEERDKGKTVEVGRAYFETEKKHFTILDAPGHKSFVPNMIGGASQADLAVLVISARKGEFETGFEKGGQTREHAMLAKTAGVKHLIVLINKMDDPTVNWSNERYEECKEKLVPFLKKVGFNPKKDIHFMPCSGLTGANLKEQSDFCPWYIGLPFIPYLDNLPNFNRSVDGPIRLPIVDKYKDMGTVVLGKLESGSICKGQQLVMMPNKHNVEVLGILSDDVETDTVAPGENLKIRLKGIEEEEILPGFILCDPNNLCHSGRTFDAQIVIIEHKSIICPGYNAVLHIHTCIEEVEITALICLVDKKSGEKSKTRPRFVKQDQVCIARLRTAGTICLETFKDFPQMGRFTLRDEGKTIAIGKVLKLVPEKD
Sequence of Protein cereblon/Eukaryotic peptide chain release factor GTP-binding subunit ERF3A (Homo sapiens) (Q96SW2 whole entry, looked up): as the sequence (Q96SW2 whole entry partner) above

[27] = Half-life in female CD-1 mouse at 3 mg/kg, iv administered as 5% v/v NMP, 5% v/v solutol HS-15 and 70% v/v normal saline formulation and measured after 24 hrs; assay type: ADME, organism-based; conditions: in vivo
[28] = Oral bioavailability in female CD-1 mouse at 10 mg/kg administered as 5% v/v NMP, 5% v/v solutol HS-15 and 70% v/v normal saline formulation and measured after 24 hrs; assay type: ADME, organism-based; conditions: in vivo
[29] = Cmax in female CD-1 mouse at 10 mg/kg, po administered as 5% v/v NMP, 5% v/v solutol HS-15 and 70% v/v normal saline formulation and measured after 24 hrs; assay type: ADME, organism-based; conditions: in vivo
[30] = Cmax in female CD-1 mouse at 3 mg/kg, iv administered as 5% v/v NMP, 5% v/v solutol HS-15 and 70% v/v normal saline formulation and measured after 24 hrs; assay type: ADME, organism-based; conditions: in vivo
[31] = AUClast in female CD-1 mouse at 3 mg/kg, iv administered as 5% v/v NMP, 5% v/v solutol HS-15 and 70% v/v normal saline formulation and measured after 24 hrs; assay type: ADME, organism-based; conditions: in vivo
[32] = AUClast in female CD-1 mouse at 10 mg/kg, po administered as 5% v/v NMP, 5% v/v solutol HS-15 and 70% v/v normal saline formulation and measured after 24 hrs; assay type: ADME, organism-based; conditions: in vivo
[33] = Volume of distribution at steady state in female CD-1 mouse at 3 mg/kg, iv administered as 5% v/v NMP, 5% v/v solutol HS-15 and 70% v/v normal saline formulation and measured after 24 hrs; assay type: ADME, organism-based; conditions: in vivo

| SMILES | AUClast [1] | t1/2 [3] | F [4] | t1/2 [5] | Activity (MOLM-13 [6]) | IC50 (MOLM-13 [7]) | Cmax [8] | Papp [9] | Activity [11] | Vdss [12] | Papp [13] | t1/2 [14] | t1/2 [15] | Emax [16] | t1/2 [17] | Cmax [18] | t1/2 [19] | DC50 [20] | AUClast [21] | solubility [10] | also measured |
| --- | --- | --- | --- | --- | --- | --- | --- | --- | --- | --- | --- | --- | --- | --- | --- | --- | --- | --- | --- | --- | --- |
| O=C1CCC(N2Cc3cc(Nc4noc5ccccc45)ccc3C2=O)C(=O)N1 (stereo not given) | 264 ng·h/mL | > 10 h | 9.5% | > 3.6 h | Active | 13 nM | 207 ng/mL | 24.5 ×10⁻⁶ cm/s | 3.5 h⁻¹ | 1.11 L/kg | 26.2 ×10⁻⁶ cm/s | 25 h | 8.5 h | 95% | 0.35 h | 2700 ng/mL | > 10 h | 1 nM | 832 ng·h/mL |  | t1/2 [2]: > 3.6 h; solubility at 18 h ([10]; pH 7.4): 36 µM (≈ 13.5 µg/mL) |
| O=C1CCC(N2Cc3cc(NC(=O)c4cccc(F)c4)ccc3C2=O)C(=O)N1 (stereo not given) | 2804 ng·h/mL | > 10 h | 41% |  | Active | 28 nM | 1617 ng/mL | 0.6 ×10⁻⁶ cm/s | 1.3 h⁻¹ | 0.88 L/kg | 1.8 ×10⁻⁶ cm/s | 10 h | 10.6 h | 88% | 1.19 h | 6450 ng/mL | > 10 h | 4 nM | 2049 ng·h/mL | 19 µM (≈ 7.25 µg/mL) | fold change (FC) [22]: 7.4; Activity (Cereblon/Ikaros): inactive; Activity (Jurkat): Non-Toxic; Activity (HEK293): Non-Toxic; EC50 [23]: 119 nM; Tmax [24]: 0.25 h; QH [25]: 27%; Activity [26]: inactive |
| O=C1CCC(N2Cc3cc(Nc4noc5cc(F)ccc45)ccc3C2=O)C(=O)N1 (stereo not given) |  | > 10 h |  | > 3.6 h |  | 21 nM |  | 19.7 ×10⁻⁶ cm/s | 3.5 h⁻¹ |  | 10.4 ×10⁻⁶ cm/s | 17 h |  | 95% |  |  |  | 4 nM |  | 26 µM (≈ 10.3 µg/mL) | t1/2 [27]: 1.98 h; F [28]: 10%; Cmax [29]: 330 ng/mL; Cmax [30]: 4240 ng/mL; AUClast [31]: 911 ng·h/mL; AUClast [32]: 306 ng·h/mL; Vdss [33]: 1.34 L/kg |
